In brackets after ≈: the same amount, converted by molar mass.
Columns and labels:
[1] = Solubility at pH 7.4; type: physicochemical; settings: buffer
Rattus norvegicus [2] = experiment: In vivo protective effect in focal ischemia rat model was determined after intravenous dosage at 2.5 mg/kg/h for 4 hr; type: functional
[3] = biological target: Glutamate receptor ionotropic, AMPA (Rattus norvegicus, UniProt P19490+P19491+P19492+P19493); experiment: Displacement of [3H]AMPA (5 nM) from ionotropic glutamate receptor AMPA of rat cerebral cortex synaptic membrane preparation; type: tissue-based
Rattus norvegicus [4] = experiment: In vivo protective effect in focal ischemia rat model was determined after intravenous dosage at 15 mg/kg/h for 4 hr; type: functional
Rattus norvegicus [5] = experiment: In vivo protective effect in focal ischemia rat model was determined after intravenous dosage at 30 mg/kg/h for 4 hr; type: functional

Row | Structure (SMILES) | Ki [3] [µM] | further results
1 | O=C(Nc1ccc(C(=O)O)cc1)OCc1cn(-c2cc3nc(C(=O)O)c(O)nc3cc2[N+](=O)[O-])cn1 |  | solubility [1]: 4.86 mg/mL (≈ 9.83 mM); Protection (Rattus norvegicus [2]): 3
2 | O=C(O)c1nc2cc(-n3ccnc3)c(C(F)(F)F)cc2nc1O | 0.086 | 
3 | O=C(Nc1ccc(C(F)(F)F)cc1)OCc1cn(-c2cc3nc(C(=O)O)c(O)nc3cc2C(F)(F)F)cn1 | 0.029 | 
4 | O=C(Nc1cc(Cl)cc(Cl)c1)OCc1cn(-c2cc3nc(C(=O)O)c(O)nc3cc2C(F)(F)F)cn1 | 0.013 | 
5 | Cc1ccc(NC(=O)OCc2cn(-c3cc4nc(C(=O)O)c(O)nc4cc3C(F)(F)F)cn2)cc1 | 0.02 | 
6 | O=C(Nc1ccc(Br)cc1)OCc1cn(-c2cc3nc(C(=O)O)c(O)nc3cc2C(F)(F)F)cn1 | 0.02 | 
7 | COc1ccc(NC(=O)OCc2cn(-c3cc4nc(C(=O)O)c(O)nc4cc3C(F)(F)F)cn2)cc1 | 0.03 | 
8 | O=C(Nc1ccc(C(=O)O)cc1)OCc1cn(-c2cc3nc(C(=O)O)c(O)nc3cc2C(F)(F)F)cn1 | 0.016 | solubility [1]: 8.29 mg/mL (≈ 16 mM); Protection (Rattus norvegicus [2]): 2.7
9 | O=C(Nc1cccc(Br)c1)OCc1cn(-c2cc3nc(C(=O)O)c(O)nc3cc2C(F)(F)F)cn1 | 0.0052 | 
10 | O=C(Nc1ccccc1)OCc1cn(-c2cc3nc(C(=O)O)c(O)nc3cc2C(F)(F)F)cn1 | 0.023 | 
11 | O=C(NCc1ccccc1)OCc1cn(-c2cc3nc(C(=O)O)c(O)nc3cc2C(F)(F)F)cn1 | 0.19 | 
12 | O=C(Nc1cccc(C(=O)O)c1)OCc1cn(-c2cc3nc(C(=O)O)c(=O)[nH]c3cc2C(F)(F)F)cn1 | 0.035 | 
13 | O=c1[nH]c2cc(-n3ccnc3)c([N+](=O)[O-])cc2[nH]c1=O [YM-90K] |  | solubility [1]: 1 mg/mL (≈ 3.66 mM); Protection (Rattus norvegicus [4]): 2.8
14 | O=C(O)Cn1c(=O)c(=O)[nH]c2cc([N+](=O)[O-])c(-n3ccnc3)cc21 [ZONAMPANEL] |  | Protection (Rattus norvegicus [5]): 0.5; solubility [1]: > 5 mg/mL
